Data taken from patent US20160235708A1, “TOPICAL PIGMENTORY COMPOSITION” (priority 2013, published 2016).

Assays:
[1] = test system: normal skin surrounding the vitiligo lesion; test: Topical psoralen / PUVA therapy of vitiligo lesions: skin reaction around the lesion; assay type: in vivo
From the text: FIG. 1 A depicts hyper pigmentation surrounding vitiligo lesion following topical Psoralen therapy

[2] = test system: vitiligo; conditions: monotherapy without ultra violet exposure; personal observation of N Ostovari; cited from earlier work

Pigmentory change surrounding the vitiligo lesion (FIG. 1A) ([1]; following topical use) | SMILES | Skin reaction surrounding the vitiligo lesion (FIG. 1B) ([1]; two applications of 1.0% solution at alternate days, topical PUVA therapy) | Repigmenting potential [2]
hyperpigmentation | COc1c2occc2cc2ccc(=O)oc12 [8 methoxypsoralen, 9-methoxy-7H-furo[3,2-g][1]-benzopyran-7-one] | Erythematous photo toxic reaction | –
– | C=CC[C@@H]1/C=C(\C)C[C@H](C)C[C@H](OC)[C@H]2O[C@@](O)(C(=O)C(=O)N3CCCC[C@H]3C(=O)O[C@H](/C(C)=C/[C@@H]3CC[C@@H](O)[C@H](OC)C3)[C@H](C)[C@@H](O)CC1=O)[C@H](C)C[C@@H]2OC [tacrolimus] | – | little or no repigmenting potential
